Results as given in patent US12710419B2, “3D sensors for simultaneous detection of bioelectronic and biomechanical signals in tissue” (UNIVERSITY OF MASSACHUSETTS, priority 2022, dated 2026).

System: cardiomyocytes
Assay: Drug tests on cultured cardiomyocytes recorded with 3D nanotransistor biosensor (AP and mechanical signals)
Type: cell-based, human
Details: for amplitude of AP / amplitude of broad peaks (mechanical signal): after adding drug, 20 μM, electrical recording
Procedure: Human embryonic stem cell-derived cardiomyocytes (hESC-CMs), which are considered promising in vitro models of cardiac health and disease, were cultured on the device substrate.
As part of experimental trials, drug tests were performed to further reveal the potential of implementing the sensors in pharmacological and pathological studies on cells. Blebbistatin, an inhibitor of myosin essential for motile machinery, was used to suppress cell contraction, as shown in FIG. 3A.
Conversely, lidocaine, a Na+ channel blocker, was added to suppress Na+ influx which contributes mostly to extracellular AP, as shown in FIG. 3D.
A Ca^2+ dysfunctional model was also built by treating the cardiomyocytes with isradipine, a Ca^2+ channel blocker used for treating a wide variety of cardiovascular disorders, as shown in FIG. 3G and its inset.
Cardiomyocytes were differentiated from human embryonic stem cells (hESCs, WAe009-A, H9) and human induced pluripotent stem cells (hiPSCs, generated from human primary T cells using episomal reprogramming) following methods described previously. Briefly, both cell types were maintained in the 60 mm tissue culture dishes coated with 10 ug/mL Matrigel in DMEM-F12 (Gibco™) using Essential 8 medium (Gibco™) and sub-passaged every 3-4 days. During differentiation, cells were seeded in a 12-well plate for 2-3 days until confluency, then replaced with RPMI 1640 medium (Gibco™) plus 1% B27-insulin (Gibco™) and 8 μM CHIR99021 (Tocris Bioscience™) (day 0). After 24 h (day 1), the medium was changed to RPMI 1640 plus 1% B27-insulin. On day 3, day 5, and day 7, the medium was changed to RPMI 1640 plus 1% B27-insulin and 5 μM IWR-1-endo (Cayman Chemical), RPMI 1640 plus 1% B27-insulin, and RPMI 1640 plus 1% B27, respectively. The medium was then replaced with RPMI 1640 plus 1% B27 every other day. […] During days 10-15, cardiomyocytes were ready for experiments. The cells were rinsed with 1×DPBS to remove calcium and inhibit contraction, then incubated with 0.5 mL of 0.5 mM Trypsin-EDTA (Gibco™) for 5 mins in a 37° C. incubator to dissociate into single cells. The EDTA was then aspirated, and the cells were dissociated by gently pipetting with 2 mL RPMI 1640 plus 1% B27 using a 1 ml pipet tip. The cells were transferred to a 15 mL conical tube and centrifuged at 250 g for 3 minutes, then resuspended with 2 mL RPMI 1640 plus 1% B27 supplemented with 10% Fetal Bovine Serum (Gibco™) and 10 μM Y-27632 ROCK inhibitor (Tocris Bioscience™). The device substrate integrated with nanotransistors was sterilized by incubating in 70% ethanol solution (1 h) at room temperature and then UV-treated (1 h). The device was coated with 20 μg/mL Matrigel in RPMI 1640 for 1 h at 37° C. Cells were seeded on the device substrate at the density of 3-5×10^5/cm^2. The cardiomyocytes were maintained using RPMI 1640 plus 1% B27 by changing the medium daily. Electrical recordings were typically performed starting from day 5 after the cell seeding.
All in vitro electrical recordings were carried out at the ambient environment with an Au reference electrode.

[1] = treatment, concentration not given

NC[C@H](O)c1ccc(O)c(O)c1 [norepinephrine]
conduction pathway [1]: alteration of the conduction pathway | contractile frequency [1]: increased contractile frequency

COC(=O)C1=C(C)NC(C)=C(C(=O)OC(C)C)C1c1cccc2nonc12 (centres unmarked) [isradipine]
AP (isradipine treatment, 20 nM): concurrent decrease | mechanical signal (isradipine treatment, 20 nM): apparent suppression | time to apparent suppression of mechanical signal (isradipine treatment, 20 nM): about 100 seconds | mechanical and AP signals after washing out (washing out isradipine): restored both signals

Cc1cccc(CCN2CCC(C(=O)c3ccc(NS(C)(=O)=O)cc3)CC2)n1 [E-4031]
contractile frequency and amplitude [1]: fluctuations in contractile frequency and amplitude

Cc1ccc2c(c1)C(=O)C1(O)CCN(c3ccccc3)C1=N2 (centres unmarked) [blebbistatin]
amplitude of AP: maintained the similar level | amplitude of broad peaks (mechanical signal): substantial decrease | broad peaks (mechanical signal) after washing out (washing out blebbistatin): restored the broad peaks

CCN(CC)CC(=O)Nc1c(C)cccc1C [lidocaine]
amplitude of AP: prominent suppression | amplitude of broad peaks (mechanical signal): no obvious effect | AP amplitude (after lidocaine 20 μM, before ~10 nS): ~ 2 nS | AP duration (after lidocaine 20 μM, before ~19 ms): ~ 40 ms
